What all share (format): functional, cell-based
In one assay the test system is KB. As to the kind of experiment: Cytotoxicity against human KB cells after 48 hrs by MTT assay.
For another assay, the system named is HepG2. The experiment in a line: Cytotoxicity against human HepG2 cells after 48 hrs by MTT assay. The following applies: HepG2, 48 h. (Tetrazolium assays rely on reduction of a dye to a coloured formazan, in cell work by metabolically active cells.)
Another assay relates to MCF7. As to the kind of experiment: Cytotoxicity against human MCF7 cells after 48 hrs by MTT assay. The settings on record: MCF7, 48 h.
The subject of another assay is HT-29. As to the kind of experiment: Cytotoxicity against human HT-29 cells after 48 hrs by MTT assay. The settings on record: HT-29, 48 h.
For the next assay, the system named is HeLa S3. The experiment in a line: Cytotoxicity against human HeLaS3 cells after 48 hrs by MTT assay. The following applies: HeLa S3, 48 h.

The pIC50 is −log10 of the IC50, conventionally taken in molar units. High values mean a low IC50, low ones a high IC50.

pIC50: −log10 of the molar value.

For the compound `COc1c(C)c(OC)c2c(=O)c3c(oc2c1C)-c1c(O)cccc1CO3`, the pIC50 with KB, in the assay on HepG2, with MCF7, with HT-29 and in the assay on HeLa S3 was under 5.00 in each case.
As for `Cc1c(O)c(C)c2oc3c(c(=O)c2c1O)OCc1ccccc1-3`, the negative logarithm of the IC50 (pIC50) in the assay on KB, in the assay with HepG2, with MCF7, in the assay on HT-29 and in the assay with HeLa S3 was under 5.00 throughout.
Regarding `COc1cccc2c1C(=O)c1c(O)c3c(c(O)c1C2=O)C[C@@](O)(C(=O)CO)C[C@@H]3O[C@H]1C[C@H](N)[C@H](O)[C@H](C)O1` [DOXORUBICIN], the negative-log IC50 (pIC50) with KB is 7.05; in the assay on HepG2, 5.81; with HT-29 it was 6.59.
`COc1ccc2c(c1)COc1c-2oc2c(C)c(O)c(C)c(OC)c2c1=O`: the pIC50 with KB, in the assay on HepG2, with MCF7, in the assay on HT-29 and in the assay on HeLa S3 was under 5.00 throughout.
For `COc1c(C)c(O)c2c(=O)c3c(oc2c1C)-c1c(O)cccc1CO3`, the negative-log IC50 (pIC50) is 5.18 with KB; under 5.00 in the assay on HepG2; under 5.00 in the assay with MCF7; under 5.00 in the assay with HT-29; under 5.00 in the assay on HeLa S3.
`COc1ccc2c(c1)COc1c-2oc2c(C)c(O)c(C)c(O)c2c1=O`: the negative-log IC50 (pIC50) in the assay with KB is 5.09; in the assay with HepG2, 5.13; with MCF7 it was 5.01; in the assay on HT-29 it was 5.06; in the assay on HeLa S3, 5.08.
The corresponding values for `COc1c(C)c(O)c(C)c2oc3c(c(=O)c12)OCc1ccccc1-3` are under 5.00, under 5.00, under 5.00, under 5.00 and under 5.00.
In the case of `Cc1c(O)c(C)c2oc3c(c(=O)c2c1O)OCc1cccc(O)c1-3`, the negative logarithm of the IC50 (pIC50) in the assay on KB was 5.05; in the assay with HepG2 it was under 5.00; with MCF7 it was under 5.00; with HT-29, under 5.00; in the assay with HeLa S3, under 5.00.
As to `COc1c(C)c(OC)c2c(=O)c3c(oc2c1C)-c1ccccc1CO3`, the negative logarithm of the IC50 (pIC50) in the assay on KB, with HepG2, in the assay on MCF7, with HT-29 and with HeLa S3 was under 5.00 in each case.

For the origin of these results see ChEMBL document CHEMBL4477172, “Bougainvinones A-H, Peltogynoids from the Stem Bark of Purple Bougainvillea spectabilis and Their Cytotoxic Activity” (J Nat Prod, 2016).
